{"source": "patent US8063008B2", "about": "“Enzymatic production of peracids using perhydrolytic enzymes” (E. I. du Pont de Nemours and Company, priority 2005, dated 2011)", "key": {"[1]": {"target": "protease subtilisin from Bacillus amyloliquefaciens (Bacillus amyloliquefaciens, UniProt P00782)", "sequence (P00782 108-382)": "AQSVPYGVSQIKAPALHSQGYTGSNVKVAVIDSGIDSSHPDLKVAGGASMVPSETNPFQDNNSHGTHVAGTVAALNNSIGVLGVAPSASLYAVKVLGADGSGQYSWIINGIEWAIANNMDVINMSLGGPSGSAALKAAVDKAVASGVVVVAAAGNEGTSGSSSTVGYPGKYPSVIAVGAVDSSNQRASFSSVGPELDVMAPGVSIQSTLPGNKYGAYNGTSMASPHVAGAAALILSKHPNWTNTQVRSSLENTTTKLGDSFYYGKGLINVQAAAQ", "conditions": "cited from earlier work"}, "E. coli ATCC 11229": {"system": "E. coli ATCC 11229", "test": "Determination of Minimum Biocidal Concentration (MBC), XTT reduction inhibition (Example 21)", "type": "cell-based", "conditions": "for replicate OD (450 nm): replicates 1-8", "text": "The method described by J. Gabrielson, et al. (J. Microbiol. Methods 50: 63-73 (2002)) was employed for determination of the Minimum Biocidal Concentration (MBC) of peracids, or for determination of the MBC of hydrogen peroxide and enzyme substrates. The assay method is based on XTT reduction inhibition, where XTT ((2,3-bis[2-methoxy-4-nitro-5-sulfophenyl]-5-[(phenylamino)carbonyl]-2H-tetrazolium, inner salt, monosodium salt) is a redox dye that indicates microbial respiratory activity by a change in optical density (OD) measured at 490 nm or 450 nm. However, there are a variety of other methods available for testing the activity of disinfectants and antiseptics including, but not limited to viable plate counts, direct microscopic counts, dry weight, turbidity measurements, absorbance, and bioluminescence (see, for example Brock, Semour S., Disinfection, Sterilization, and Preservation, 5th edition, Lippincott Williams & Wilkins, Philadelphia, Pa., USA; 2001).\nThe filtered enzyme-generated product mixture was diluted 1:5 with sterile water, and the resulting solution was further diluted with sterile water in four 1:1 serial dilutions to obtain the concentrations of PAA and hydrogen peroxide listed in Table 22.\nThe 1:5 dilution and four serial dilutions were evaluated for biocidal activity by mixing 0.100 mL of the PAA-containing solution with 0.100 mL of an inoculum containing 2.7×10^6 CFU/mL of E. coli ATCC 11229 (American Type Culture Collection, Manassas, Va.) in Millers LB broth diluted with Butterfield Buffer; eight replicates of each mixture were contained in individual wells of a sterile 96-well microtiter plate. After the resulting cell suspensions were allowed to stand for 10 minutes at room temperature, they were tested for viability using the growth indicator XTT (2,3-bis[2-methoxy-4-nitro-5-sulfophenyl]-5-[(phenylamino)carbonyl]-2H-tetrazolium, inner salt, monosodium salt; CAS RN 111072-31-2) according to the method of Gabrielson et al. (J. Microbiol. Methods, 50:63-73 (2002)).\nSeparately, the cell inoculum was treated with sterile solutions of triacetin (Table 24) or hydrogen peroxide in 50 mM phosphate buffer (pH 6.5) (Table 25) at the concentrations present in each of the biocide dilutions in Table 23 to determine the MBC for these components of the biocide solution."}, "[2]": {"test": "Enzymatic perhydrolysis of propyl acetate at pH 6.5 (Example 11, comparative)", "type": "biochemical", "conditions": "pH 6.5, 2 mg enzyme", "protocol": "Into a 4-mL glass vial with stir bar was added 2 mg of one of the following enzymes: acetylcholinesterase (Sigma, C-2888), Lipase G “Amano” 50 (Amano), or Chirazyme L2, lyo. (C. antartica lipase B, BioCatalytics) dissolved in 0.050 mL of 50 mM potassium phosphate buffer (pH 6.5). To the vial was then added either a) 0.930 mL of a solution containing 50 mM potassium phosphate buffer (pH 6.5) and 215 mM propyl acetate, followed by 0.021 mL 30% hydrogen peroxide (200 mM final hydrogen peroxide concentration) or b) 0.900 mL of a solution containing 278 mM triacetin in 50 mM potassium phosphate buffer (pH 6.5), 0.024 mL of 50 mM potassium phosphate buffer (pH 6.5), and 0.026 mL 30% hydrogen peroxide (250 mM final concentration). […] A portion of the resulting filtrate was diluted 1:10 with dd water and analyzed for hydrogen peroxide, and the remaining portion of the filtrate was directly analyzed for peracid using the HPLC assay method (Table 12)."}}, "note": "Several values for one entry are separate records, joined by “and”; a condition that tells them apart may be missing. Identical values can stand only once. Like-named read-outs stand apart in the source and are kept apart here.", "data": [{"compound": "OO", "note": "[Hydrogen Peroxide, hydrogen peroxide]", "values": [{"measurement": "inactivation of the protease subtilisin", "setting": "[1]; 0.1 M hydrogen peroxide, in less than 6 minutes", "value": "> 80", "unit": "%"}, {"measurement": "inactivation of the protease subtilisin", "setting": "[1]; 1.0 M hydrogen peroxide, in less than 4 minutes", "value": "> 80", "unit": "%"}, {"measurement": "MBC", "setting": "E. coli ATCC 11229; Escherichia coli, ATCC11229, 10 min, E. coli ATCC 11229, 1.35×10^6 CFU/mL, 10 minutes at room temperature, XTT, six-log kill, read-out: Minimum Biocidal Concentration (MBC)", "value": "> 170", "unit": "µg/mL"}, {"measurement": "blank-corrected mean OD", "setting": "E. coli ATCC 11229; H2O2 42.5 ppm", "value": 1.710}, {"measurement": "mean replicate OD (450 nm)", "setting": "E. coli ATCC 11229; H2O2 42.5 ppm", "value": 2.134}, {"measurement": "replicate OD (450 nm)", "setting": "E. coli ATCC 11229; H2O2 42.5 ppm", "value": "2.007 and 2.027 and 1.971 and 2.117 and 2.666 and 2.170 and 2.082 and 2.034"}, {"measurement": "blank-corrected mean OD", "setting": "E. coli ATCC 11229; H2O2 85.1 ppm", "value": 1.466}, {"measurement": "mean replicate OD (450 nm)", "setting": "E. coli ATCC 11229; H2O2 85.1 ppm", "value": 1.890}, {"measurement": "replicate OD (450 nm)", "setting": "E. coli ATCC 11229; H2O2 85.1 ppm", "value": "1.889 and 1.815 and 1.795 and 1.962 and 2.153 and 1.880 and 1.793 and 1.834"}, {"measurement": "blank-corrected mean OD", "setting": "E. coli ATCC 11229; H2O2 170.1 ppm", "value": 0.005}, {"measurement": "mean replicate OD (450 nm)", "setting": "E. coli ATCC 11229; H2O2 170.1 ppm", "value": 0.4295}, {"measurement": "replicate OD (450 nm)", "setting": "E. coli ATCC 11229; H2O2 170.1 ppm", "value": "0.435 and 0.402 and 0.424 and 0.462 and 0.414 and 0.401 and 0.422 and 0.470"}, {"measurement": "blank-corrected mean OD", "setting": "E. coli ATCC 11229; H2O2 340.2 ppm", "value": 0.009}, {"measurement": "mean replicate OD (450 nm)", "setting": "E. coli ATCC 11229; H2O2 340.2 ppm", "value": 0.433}, {"measurement": "replicate OD (450 nm)", "setting": "E. coli ATCC 11229; H2O2 340.2 ppm", "value": "0.423 and 0.439 and 0.425 and 0.432 and 0.452 and 0.440 and 0.428 and 0.424"}, {"measurement": "blank-corrected mean OD", "setting": "E. coli ATCC 11229; H2O2 680.5 ppm", "value": 0.016}, {"measurement": "mean replicate OD (450 nm)", "setting": "E. coli ATCC 11229; H2O2 680.5 ppm", "value": 0.440}, {"measurement": "replicate OD (450 nm)", "setting": "E. coli ATCC 11229; H2O2 680.5 ppm", "value": "0.433 and 0.440 and 0.426 and 0.430 and 0.453 and 0.456 and 0.436 and 0.446"}]}, {"compound": "acetyl cholinesterase", "values": [{"measurement": "propyl acetate (200 mM), H2O2 (200 mM) peracetic acid (ppm), 5 min", "setting": "[2]; 5 min", "value": 0, "unit": "ppm"}, {"measurement": "propyl acetate (200 mM), H2O2 (200 mM) peracetic acid (ppm), 30 min", "setting": "[2]; 30 min", "value": 0, "unit": "ppm"}]}]}
